From patent publication US9884818B2, “Sulphamoylpyrrolamide derivatives and the use thereof as medicaments for the treatment of hepatitis B” (Janssen Sciences Ireland UC, priority 2013, dated 2018)

What was measured:
[1] = Cytotoxicity in HepG2 cells, Resazurin viability assay; details: human, HepG2 cells, HepG2 4 days CC50 (μM), incubated for 4 days, Resazurin assay
[2] = system: HBV; experiment: Anti-HBV activity, HepG2.2.15 stable transfected cell line, HBV DNA from secreted virions by realtime PCR; format: cell-based; details: Hepatitis B virus, HepG2.2.15, 144 h, HepG2.2.15 cells, 6 days of treatment, HBV DNA from secreted virions; read-out: HepG2 2.15 EC50
[3] = system: HBV; experiment: Anti-HBV activity, HepG2.117 inducibly HBV producing cell line (Tet-off), intracellular HBV DNA by realtime PCR; format: cell-based; details: Hepatitis B virus, HepG2.117, 72 h, HepG2.117 cells, 3 days of treatment, intracellular HBV DNA; read-out: HepG2 117 EC50

Row | SMILES | CC50 at 4 days [1] | EC50 [2] | EC50 [3]
1 | C[C@H](NS(=O)(=O)c1cc(C(=O)Nc2cccc(C#N)c2)n(C)c1)C(F)(F)F [Compound 197, N-(3-Cyanophenyl)-1-methyl-4-{[(1S)-2,2,2-trifluoro-1-methylethyl]-sulfamoyl}-1H-pyrrole-2-carboxamide] | > 25 µM | 120 nM | 90 nM
2 | C[C@H](NS(=O)(=O)c1cc(C(=O)Nc2cccc(C#N)c2F)n(C)c1)C(F)(F)F [Compound 198, N-(3-Cyano-2-fluorophenyl)-1-methyl-4-{[(1S)-2,2,2-trifluoro-1-methylethyl]sulfamoyl}-1H-pyrrole-2-carboxamide] | > 25 µM | 150 nM | 80 nM
3 | C[C@@H](NS(=O)(=O)c1cn(C)c(C(=O)Nc2ccc(F)c(C#N)c2)c1Cl)C(F)(F)F [Compound 199, 3-Chloro-N-(3-cyano-4-fluorophenyl)-1-methyl-4-{[(1R)-2,2,2-trifluoro-1-methylethyl]sulfamoyl}-1H-pyrrole-2-carboxamide] | > 25 µM | 6 nM | 8 nM
4 | Cc1c(S(=O)(=O)NC2(C)COC2)cn(C)c1C(=O)Nc1cc(F)c(F)c(Cl)c1 [Compound 201, N-(3-Chloro-4,5-difluorophenyl)-1,3-dimethyl-4-[(3-methyloxetan-3-yl)sulfamoyl]-1H-pyrrole-2-carboxamide] | > 25 µM | 70 nM | 20 nM
5 | Cc1c(S(=O)(=O)N[C@H](C)C(F)(F)F)cn(C)c1C(=O)Nc1cc(F)c(F)c(Cl)c1 [Compound 202, N-(3-Chloro-4,5-difluorophenyl)-1,3-dimethyl-4-{[(1R)-2,2,2-trifluoro-1-methylethyl]sulfamoyl}-1H-pyrrole-2-carboxamide] | > 25 µM | 30 nM | 20 nM
6 | C[C@@H](NS(=O)(=O)c1cc(C(=O)Nc2cccc(F)c2F)n(C)c1)C(F)(F)F [Compound 203, N-(2,3-Difluorophenyl)-1-methyl-4-{[(1R)-2,2,2-trifluoro-1-methyl-ethyl]sulfamoyl}-1H-pyrrole-2-carboxamide] | > 25 µM | 380 nM | 470 nM
7 | C[C@@H](NS(=O)(=O)c1cc(C(=O)Nc2c(F)ccc(Cl)c2F)n(C)c1)C(F)(F)F [Compound 204, N-(3-Chloro-2,6-difluorophenyl)-1-methyl-4-{[(1R)-2,2,2-trifluoro-1-methylethyl]sulfamoyl}-1H-pyrrole-2-carboxamide] | > 25 µM | 650 nM | 620 nM
8 | C[C@@H](NS(=O)(=O)c1cc(C(=O)Nc2cc(F)c(F)c(Br)c2)n(C)c1)C(F)(F)F [Compound 205, N-(3-Bromo-4,5-difluorophenyl)-1-methyl-4-{[(1R)-2,2,2-trifluoro-1-methylethyl]sulfamoyl}-1H-pyrrole-2-carboxamide] | 13 µM | 80 nM | 30 nM
9 | C[C@@H](NS(=O)(=O)c1cc(C(=O)Nc2cccc(Br)c2F)n(C)c1)C(F)(F)F [Compound 206, N-(3-Bromo-2-fluorophenyl)-1-methyl-4-{[(1R)-2,2,2-trifluoro-1-methylethyl]sulfamoyl}-1H-pyrrole-2-carboxamide] | > 25 µM | 30 nM | 90 nM
10 | Cn1cc(S(=O)(=O)NC(C)(C)CF)cc1C(=O)Nc1cc(F)c(F)c(Cl)c1 [Compound 207, N-(3-chloro-4,5-difluoro-phenyl)-4-[(2-fluoro-1,1-dimethyl-ethyl)sulfamoyl]-1-methyl-pyrrole-2-carboxamide] | > 25 µM | 50 nM | 140 nM
11 | Cc1c(S(=O)(=O)NC(C)C)cn(C)c1C(=O)Nc1ccc(F)c(Cl)c1F [Compound 208, N-(3-Chloro-2,4-difluorophenyl)-1,3-dimethyl-4-[(1-methylethyl)sulfamoyl]-1H-pyrrole-2-carboxamide] | > 25 µM | 200 nM | 660 nM
12 | Cc1c(S(=O)(=O)N[C@@H](C)C(F)(F)F)cn(C)c1C(=O)Nc1ccc(F)c(Cl)c1F [Compound 209, N-(3-Chloro-2,4-difluorophenyl)-1,3-dimethyl-4-{[(1S)-2,2,2-trifluoro-1-methylethyl]sulfamoyl}-1H-pyrrole-2-carboxamide] | > 25 µM | 90 nM | 90 nM
13 | Cc1c(S(=O)(=O)N[C@H](C)C(F)(F)F)cn(C)c1C(=O)Nc1ccc(F)c(Cl)c1F [Compound 210, N-(3-Chloro-2,4-difluorophenyl)-1,3-dimethyl-4-{[(1R)-2,2,2-trifluoro-1-methylethyl]sulfamoyl}-1H-pyrrole-2-carboxamide] | > 25 µM | 50 nM | 50 nM
14 | Cn1cc(S(=O)(=O)NC(C)(C)C)c(F)c1C(=O)Nc1ccc(F)c(F)c1 [Compound 211, 4-(tert-Butylsulfamoyl)-N-(3,4-difluorophenyl)-3-fluoro-1-methyl-1H-pyrrole-2-carboxamide] | > 25 µM | 40 nM | 40 nM
15 | Cn1cc(S(=O)(=O)NC(C)(C)C)c(F)c1C(=O)Nc1ccc(F)c(Cl)c1F [Compound 212, 4-(tert-Butylsulfamoyl)-N-(3-chloro-2,4-difluorophenyl)-3-fluoro-1-methyl-1H-pyrrole-2-carboxamide] | > 25 µM | 90 nM | 40 nM
16 | Cn1cc(S(=O)(=O)NC(C)(C)C)c(F)c1C(=O)Nc1ccc(F)c(F)c1F [Compound 213, 4-(tert-Butylsulfamoyl)-3-fluoro-1-methyl-N-(2,3,4-trifluorophenyl)-1H-pyrrole-2-carboxamide] | > 25 µM | 210 nM | 310 nM
17 | Cn1cc(S(=O)(=O)NC(C)(C)C)c(F)c1C(=O)Nc1ccc(F)c(C#N)c1 [Compound 214, 4-(tert-Butylsulfamoyl)-N-(3-cyano-4-fluorophenyl)-3-fluoro-1-methyl-1H-pyrrole-2-carboxamide] | > 25 µM | 60 nM | 20 nM
18 | Cn1cc(S(=O)(=O)NC2(C)COC2)c(F)c1C(=O)Nc1ccc(F)c(Cl)c1F [Compound 215, N-(3-Chloro-2,4-difluorophenyl)-3-fluoro-1-methyl-4-[(3-methyloxetan-3-yl)sulfamoyl]-1H-pyrrole-2-carboxamide] | > 25 µM | 20 nM | 10 nM
19 | CC(C)NS(=O)(=O)c1cn(C)c(C(=O)Nc2ccc(F)c(C#N)c2)c1C#N [Compound 216, 3-Cyano-N-(3-cyano-4-fluorophenyl)-1-methyl-4-[(1-methylethyl)sulfamoyl]-1H-pyrrole-2-carboxamide] | > 25 µM | 180 nM | 460 nM
20 | C[C@@H](NS(=O)(=O)c1cn(C)c(C(=O)Nc2ccc(F)c(F)c2)c1Cl)C(F)(F)F [Compound 217, 3-Chloro-N-(3,4-difluorophenyl)-1-methyl-4-{[(1R)-2,2,2-trifluoro-1-methylethyl]sulfamoyl}-1H-pyrrole-2-carboxamide] | > 25 µM | 5 nM | 5 nM
21 | C[C@@H](NS(=O)(=O)c1cn(C)c(C(=O)Nc2ccc(F)c(Cl)c2F)c1Cl)C(F)(F)F [Compound 218, 3-Chloro-N-(3-chloro-2,4-difluorophenyl)-1-methyl-4-{[(1R)-2,2,2-trifluoro-1-methylethyl]sulfamoyl}-1H-pyrrole-2-carboxamide] | > 25 µM | 9 nM | 7 nM
22 | Cn1cc(S(=O)(=O)NC2(C(F)(F)F)CCC2)c(Cl)c1C(=O)Nc1ccc(F)c(Cl)c1F [Compound 219, 3-Chloro-N-(3-chloro-2,4-difluorophenyl)-1-methyl-4-{[1-(trifluoro-methyl)cyclobutyl]sulfamoyl}-1H-pyrrole-2-carboxamide] | > 25 µM | 10 nM | 9 nM
23 | Cn1cc(S(=O)(=O)NC(C)(C)C)c(Cl)c1C(=O)Nc1ccc(F)c(Cl)c1 [Compound 220, 4-(tert-Butylsulfamoyl)-3-chloro-N-(3-chloro-4-fluorophenyl)-1-methyl-1H-pyrrole-2-carboxamide] | > 25 µM | 100 nM | 40 nM
24 | Cn1cc(S(=O)(=O)NC2(C(F)(F)F)CCC2)c(Cl)c1C(=O)Nc1ccc(F)c(C#N)c1 [Compound 221, 3-Chloro-N-(3-cyano-4-fluorophenyl)-1-methyl-4-{[1-(trifluoro-methyl)cyclobutyl]sulfamoyl}-1H-pyrrole-2-carboxamide] | > 25 µM | 7 nM | 6 nM
25 | C[C@@H](NS(=O)(=O)c1cn(C)c(C(=O)Nc2ccc(F)c(Cl)c2)c1Cl)C(F)(F)F [Compound 222, 3-Chloro-N-(3-chloro-4-fluorophenyl)-1-methyl-4-{[(1R)-2,2,2-trifluoro-1-methylethyl]sulfamoyl}-1H-pyrrole-2-carboxamide] | > 25 µM | 4 nM | 9 nM
26 | Cn1cc(S(=O)(=O)NC(C)(C)C)c(Cl)c1C(=O)Nc1ccc(F)c(F)c1 [Compound 223, 4-(tert-Butylsulfamoyl)-3-chloro-N-(3,4-difluorophenyl)-1-methyl-1H-pyrrole-2-carboxamide] | > 25 µM | 120 nM | 90 nM
27 | Cn1cc(S(=O)(=O)NC(C)(C)C)c(Cl)c1C(=O)Nc1ccc(F)c(Cl)c1F [Compound 224, 4-(tert-Butylsulfamoyl)-3-chloro-N-(3-chloro-2,4-difluorophenyl)-1-methyl-1H-pyrrole-2-carboxamide] | > 25 µM | 220 nM | 260 nM
28 | C[C@H](NS(=O)(=O)c1cn(C)c(C(=O)Nc2ccc(F)c(C#N)c2)c1Cl)C(F)(F)F [Compound 225, 3-Chloro-N-(3-cyano-4-fluorophenyl)-1-methyl-4-{[(1S)-2,2,2-trifluoro-1-methylethyl]sulfamoyl}-1H-pyrrole-2-carboxamide] | > 25 µM | 70 nM | 70 nM
